Measured values reported in US7851629B2, “Disubstituted phenylpiperidines as modulators of dopamine and serotonin neurotransmission” (NSAB, Filial af Neurosearch Sweden AB, Sverige, priority 2004, dated 2010).
“And” between values parts separate entries of the source, which are not always exact repeats. Equal values may be shown once. Where a name gives a salt, the structure may show the parent alone.

How the values were obtained:
MK-801 pre-treated rats = assay: Locomotor activity in MK-801 pre-treated rats; conditions: ± SEM; for Locomotor activity, MK + example: MK-801 0.7 mg/kg i.p. 90 minutes before test compound 33 μmol/kg, recorded 30-60 minutes after administration
drug-naive rats = assay: Locomotor activity in drug-naive rats; conditions: recorded for 60 minutes, ± SEM
[1] = test system: extracellular 5-HT, dopamine and norepinephrine in the cortex; assay: Microdialysis in awake and freely moving rats, cortex monoamines; type: in vivo, rat; conditions: for levels of dopamine in the cortex / levels of norepinephrine in the cortex / 5-HT in the cortex: 50 μmol/kg s.c., pf. cortex; for levels of dopamine in the cortex / levels of norepinephrine in the cortex: FIG. 2-4; for 5-HT in the cortex: FIGS. 2-4
Source text: The microdialysis technique (Ungerstedt, Herrera-Marschitz et al. 1982) is a well established technique for measuring extracellular levels of neurotransmitters (Ungerstedt 1991). The microdialysis technique was used to measure the effect of drugs upon the monoamine transmitters. The appended graphs (FIGS. 1-4) show the effects of one established antidepressant (citalopram) upon 5-HT in the cortex, as well as for three compounds claimed in the present invention (Examples 3, 5, and 6).
Male Sprague-Dawley rats weighing 220-320 g were used throughout the experiments. Before the experiment the animals were group housed, five animals in each cage, with free access to water and food. The animals were housed at least one week after arrival prior to surgery and use in the experiments. Each rat was used only once for microdialysis.
We use a modified version (Waters, Lofberg et al. 1994) of the I-shaped probe (Santiago and Westerink 1990). The dialysis membrane we use is the AN69 polyacrylonitrile/sodium methalylsulfonate copolymer (HOSPITAL; o.d./i.d. 310/220 μm: Gambro, Lund, Sweden). In the dorsal striatum we use probes with an exposed length of 3 mm of dialysis membrane and in the prefrontal cortex the corresponding length is 2.5 mm. The rats were operated under isoflurane inhalation anesthesia while mounted into a Kopf stereotaxic instrument. Coordinates were calculated relative to bregma; dorsal striatum AP+1, ML±2.6, DV−6.3; Pf cortex, AP+3.2, 8° ML±1.2, DV−4.0 according to (Paxinos and Watson 1986). The dialysis probe was positioned in a burr hole under stereotaxic guidance and cemented with phosphatine dental cement.
The rats were housed individually in cages for 48 h before the dialysis experiments, allowing them to recover from surgery and minimizing the risk of drug interactions with the anaesthetic during the following experiments. During this period the rats had free access to food and water. On the day of experiment the rats were connected to a micro perfusion pump via a swivel and were replaced in the cage where they could move freely within its confinements. The perfusion medium was a Ringer's solution containing in mmol/l: NaCl; 140, CaCl2; 1.2, KCl; 3.0, MgCl2; 1.0 and ascorbic acid; 0.04 according to (Moghaddam and Bunney 1989). The pump was set to a perfusion speed of 2 μl/min and 40 μl samples were collected every 20 min.
30 μl of each sample was injected into the chromatograph. On a 10-port injector (Valco CLOW), with two sample loops mounted in series (2 μl and 20 μl), each brain dialysate sample is loaded in both loops simultaneously. When the valve is switched to inject the main part of the 20 μl sample is introduced into a reverse-phase ion-pairing system for dopamine (DA), norepinephrine (NA), normetanephrine (NM), 3-methoxytyramine(3-MT) and serotonin (5-hydroxytryptamine, 5-HT) determination (large loop), while a small fraction (2 μl, from the small loop) is introduced on a reverse-phase column for the chromatography of the acidic monoamine metabolites 3,4-di-hydroxyphenylacetic acid (DOPAC), homovanillic acid (HVA) and 5-hydroxyindoleacetic acid (5-HIAA). The currents generated by the two EC detectors are converted to digital data and evaluated using Chromelion software (Dionex, Sunnyvale, Calif.) on a PC. The method sample turn over time was 4.5 min and two parallel experiments are normally analysed simultaneously on the system. After the experiment the rats were uncoupled from the perfusion pump and decapitated. Their brains were rapidly taken out and fixed in Neo-fix solution (Kebo-lab, Sweden) for subsequent inspection of probe localisation. The Animal Ethics Committee in Göteborg, Sweden approved the procedures applied in these experiments. • Moghaddam, B. and B. S. Bunney (1989). “Ionic Composition of Microdialysis Perfusing Solution Alters the Pharmacological Responsiveness and Basal Outflow of Striatal Dopamine.” J. Neurochem. 53: 652-654. • Paxinos, G. and C. Watson (1986). […]

schizophrenic patients = conditions: selective sigma receptor antagonists; Borison et al 1991, Gewirtz et al 1994; cited from earlier work

CCCN1CCC(c2cccc(Cl)c2Cl)CC1 [drawing 28]
Locomotor activity, MK + example (MK-801 pre-treated rats): 12943 ± 3226 (P = 0.06) counts/30 min

CCCN1CCC(c2cccc(F)c2F)CC1 [drawing 19]
Locomotor activity (drug-naive rats; 11 μmol/kg): 8894 ± 1039 counts/60 min | Locomotor activity (drug-naive rats; 33 μmol/kg): 9958 ± 1835 counts/60 min | Locomotor activity (drug-naive rats; 100 μmol/kg): 8154 ± 1388 counts/60 min

CCCN1CCC(c2cccc(F)c2F)CC1 (as salt: hydrochloric acid salt) [Example 5, 4-(2,3-difluorophenyl)-1-propylpiperidine]
melting point: 237 to 238 °C

CCCN1CCC(c2cccc(F)c2F)CC1 [drawing 29]
Locomotor activity, MK + example (MK-801 pre-treated rats): 19826 ± 6949 (P = 0.09) counts/30 min

CN1CCC(c2cccc(C(F)(F)F)c2F)CC1 (as salt: hydrochloric acid salt)
melting point: 260 to 261 °C

C[C@]12N[C@H](Cc3ccccc31)c1ccccc12 [MK-801, reference compound]
Locomotor activity, MK-801 (MK-801 pre-treated rats; MK-801 0.7 mg/kg i.p. alone, recorded 30-60 minutes, 0.7 mg/kg): 55810 ± 16124 counts/30 min and 30462 ± 6937 counts/30 min

CCCN1CCC(c2cccc(F)c2F)CC1 [Example 5, 4-(2,3-difluorophenyl)-1-propylpiperidine]
levels of dopamine in the cortex [1]: elevate | levels of norepinephrine in the cortex [1]: elevate | 5-HT in the cortex [1]: 5-HT increase in the cortex

CCN1CCC(c2cccc(C#N)c2F)CC1 (as salt: oxalic acid salt)
melting point: 156 to 158 °C

CN1CCN2c3ncccc3Cc3ccccc3C2C1 (stereo not shown) [mirtazapine, reference compound]
extracellular dopamine in the cortex ([1]; 10 mg/kg s.c., cortex, FIG. 5): increase | extracellular norepinephrine in the cortex ([1]; 10 mg/kg s.c., cortex, FIG. 5): increase

CCCN1CCC(c2cccc(Cl)c2Cl)CC1 (as salt: hydrochloric acid salt) [Example 6, 4-(2,3-dichlorophenyl)-1-propylpiperidine]
melting point: 265 to 267 °C

C[C@@H]1CN(CCCn2c3ccccc3c3ccccc32)C[C@H](C)N1 [BW234U]
outcome of clinical studies in schizophrenic patients (schizophrenic patients): failed

CCCN1CCC(c2cccc(Cl)c2Cl)CC1 [drawing 18]
Locomotor activity (drug-naive rats; 11 μmol/kg): 7739 ± 1903 counts/60 min | Locomotor activity (drug-naive rats; 33 μmol/kg): 7053 ± 659 counts/60 min | Locomotor activity (drug-naive rats; 100 μmol/kg): 4272 ± 1831 counts/60 min

CCN1CCC(c2cccc(C(F)(F)F)c2F)CC1 [drawing 17]
Locomotor activity (drug-naive rats; 11 μmol/kg): 10587 ± 1027 counts/60 min | Locomotor activity (drug-naive rats; 33 μmol/kg): 6439 ± 418 counts/60 min | Locomotor activity (drug-naive rats; 100 μmol/kg): 4866 ± 941 counts/60 min

CCCN1CCC(c2cccc(Cl)c2Cl)CC1 [Example 6, 4-(2,3-dichlorophenyl)-1-propylpiperidine]
levels of dopamine in the cortex [1]: elevate | levels of norepinephrine in the cortex [1]: elevate | 5-HT in the cortex [1]: 5-HT increase in the cortex

OC(CCCN1CCN(c2ncc(F)cn2)CC1)c1ccc(F)cc1 (stereo not shown) [BMY14802]
outcome of clinical studies in schizophrenic patients (schizophrenic patients): failed

CCCN1CCC(c2cccc(OC(F)(F)F)c2F)CC1 (as salt: hydrochloric acid salt) [Example 2, 4-[2-fluoro-3-(trifluoromethoxy)phenyl]-1-propyl-piperidine]
melting point: 221 to 222 °C

CCN1CCC(c2cccc(C(F)(F)F)c2F)CC1 [Example 3, 4-[2-fluoro-3-(trifluoromethyl)phenyl]-1-ethylpiperidine]
levels of dopamine in the cortex [1]: elevate | levels of norepinephrine in the cortex [1]: elevate | 5-HT in the cortex [1]: 5-HT increase in the cortex

CCN1CCC(c2cccc(C(F)(F)F)c2F)CC1 (as salt: hydrochloric acid salt) [Example 3, 4-[2-fluoro-3-(trifluoromethyl)phenyl]-1-ethylpiperidine]
melting point: 235 to 237 °C
